From US20250314656A1, “GENETICALLY ENCODED FLUORESCENT INDICATOR OF D-2-HYDROXYGLUTARATE” (priority 2024, published 2025)
Read-outs that look alike come from different tables or passages of the source.

Columns and labels:
[1] = target: D2HGlo (Variant 2, SEQ ID NO: 4; Variant 2 truncated DhdR SEQ ID NO: 2, two residues removed from each terminus, between ECFP and cpVenus173) (Achromobacter denitrificans, UniProt A0ABZ3FXY3); format: binding, Achromobacter denitrificans NBRC 15125; conditions: concentrations up to 100 μM
[2] = test system: IDH1 wildtype U87MG cells; test: Live-cell D2HGlo FRET ratio after inhibitor treatment, wildtype cells; format: cell-based, human
Description: (A) Left: Representative image of a wild-type IDH1 U87MG cell expressing Cyto-D2HGlo. Scale bar is 25 μm. […] (B) Left: Representative image of a wild-type IDH1 U87 clel cell expressing Nuc-D2HGlo. Scale bar is 25 μm. […] (C) Left: Representative image of a wild-type IDH1 U87 cell expressing Mito-D2HGlo. Scale bar is 25 μm.
(§1) Statistical analysis was performed using a one-way ANOVA test with post hoc Tukey (**, P<0.01; *, P<0.05). […] Statistical analysis was performed using a one-way ANOVA test with post hoc Tukey (*, P<0.05);
Fluorescence Live-Cell Imaging.

[3] = test system: IDH1 wildtype U87MG cells; test: FRET imaging of D2HGlo in IDH1 wildtype U87MG cells; format: cell-based, human; conditions: Compound 968 1 μM, approx. 5.5 minutes
Description: . […] . This evidence further supports the specificity of D2HGlo to endogenous D-2-HG in situ. […] . […] .
The inventors utilized the glutaminase C inhibitor Compound 968 and 2-Deoxy-D-glucose (2-DG), an inhibitor of glycolysis. […] . Cell Culture and Transfection. […] Cells were transfected 24 hours after plating with 1.0 μg D2HGlo constructs and 3.0 μL Trans-IT®-LT1 transfection reagent (Mirus Bio, Madison, WI). The cells were allowed to express for 48 hours before imaging.
Fluorescence Live-Cell Imaging. […] The standard imaging parametersD2HGlo sensors were: 457 excited at 458 nm laser line and 482 nm and 531 nm and the fluorescent signal was collected using a BA 480-495 emission filter (ECFP) and a BA 535-565 emission filter (FRET). The FRET ratio was determined by dividing the FRET signal by the ECFP signal. […] . The maximum FRET ratio was determined for the entire time-course and normalized to the baseline FRET ratio. […] A region of interest was drawn on each cell, and the average FRET ratio within each ROI was determined. In some sets of experiments, cells were treated with AG-120 (3 μM) for 48 hours prior to FRET ratio collection. Alternatively, glutaminase inhibitor (1 μM), or 2-DG (10 mM) were added to imaging wells after collecting baseline FRET values for 30 seconds.

[4] = test system: IDH1 wildtype U87MG cells; test: D-2-HG concentration in cell culture supernatant measured with purified D2HGlo, wildtype cells; format: cell-based, human
Description: as §1
Both cell lines were left untreated or exposed to AG-120 (3 μM) for 48 hours prior to measurements. (B) Titration of purified D2HGlo with increasing concentrations of D-2-HG (100 nM-1 mM) spiked into human serum. […] (D) Titration of purified D2HGlo with increasing concentrations of D-2-HG (100 nM-1 mM) spiked into human urine. […] (F) Titration of purified D2HGlo with increasing concentrations of D-2-HG (100 nM-1 mM) spiked into aCSF.
Cell Culture Supernatant: U87MG IDH1 wildtype and mutant cells were plated at 60% confluence in 6-well plates. For some experiments, AG-120 in DMSO (3 μM), Glutaminase inhibitor (1 μM), or 2-DG (10 mM) was added to the cell culture media before plating the cells. For all conditions and cell lines, the cell culture supernatant was collected after 48 hours of incubation at 37° C. 10 μL of cell culture media was mixed with 90 μL of purified D2HGlo (5 μM), and the FRET ratios were collected. D-2-HG levels were estimated by using the titration curve as a calibration curve and converting the FRET ratios of unknowns into concentrations. Biological Fluids: Urine and serum were collected from three healthy donors while aCSF was purchased (Tocris Bioscience).

[5] = several freeze-thaw cycles or exposure to excess heat; cited from earlier work
[6] = test system: 2-HG; conditions: newly diagnosed and advanced cancer; cited from earlier work

## C[C@H](O)C(=O)O [Lactate, sodium L-lactate]
[1]
  response of D2HGlo (FRET ratio) to metabolite: does not respond
[1]; listed as lactate
  response of D2HGlo (FRET ratio) to metabolite: did not respond

## O=CC[C@@H](O)[C@H](O)[C@H](O)CO [Variant 2-DG, 2-Deoxy-D-glucose]
[2]; 2-DG 10 mM, approximately 5.5 minutes
  acute change of Cyto-D2HGlo FRET ratio: unaffected

## CN(C)c1ccc(C2Nc3ccc4ccccc4c3C3=C2C(=O)CC(C)(C)C3)cc1Br (stereo not shown) [Compound 968]
[3]
  acute change of FRET ratio (Cyto-D2HGlo): did not elicit any changes in FRET ratio
[4]; Compound 968 1 μM for 48 hours
  D-2-HG accumulation in supernatant: nor did it affect D-2-HG accumulation in cell culture supernatants

## O=C(O)CCC(=O)C(=O)O [α-ketoglutarate, α-ketoglutaric acid]
[1]
  response of D2HGlo (FRET ratio) to metabolite: does not respond

## O=C(O)CC(=O)C(=O)O [Oxaloacetate, Oxaloacetic acid]
[1]
  response of D2HGlo (FRET ratio) to metabolite: does not respond

## O=C(O)CC[C@@H](O)C(=O)O [Variant D-2-HG, D-2-hydroxyglutarate]
[5]
  stability in biological fluids: remains stable

## N#Cc1ccnc(N2C(=O)CC[C@H]2C(=O)N(c2cncc(F)c2)[C@H](C(=O)NC2CC(F)(F)C2)c2ccccc2Cl)c1 [AG-120]
[6]
  effect on 2-HG levels in patients: reduction of 2-HG to levels similar to those seen in healthy populations
[2]; AG-120 3 μM for 48 hours
  effect on D-2-HG levels: had no effect on D-2-HG levels
[4]; AG-120 3 μM for 48 hours
  D-2-HG concentration in supernatant: 2.79 ± 0.41 µM

## O=C(O)CCC(=O)O [Succinate, succinic acid]
[1]
  response of D2HGlo (FRET ratio) to metabolite: does not respond

## O=C(O)CC(O)C(=O)O (racemic) [Malate, sodium hydrogen DL-malate]
[1]
  response of D2HGlo (FRET ratio) to metabolite: does not respond

## N[C@@H](CCC(=O)O)C(=O)O [Glutamate, L-glutamic acid]
[1]
  response of D2HGlo (FRET ratio) to metabolite: does not respond
[1]; listed as glutamate
  response of D2HGlo (FRET ratio) to metabolite: did not respond

## O=C(O)CC(O)(CC(=O)O)C(=O)O [Citrate]
[1]
  response of D2HGlo (FRET ratio) to metabolite: does not respond
